Values of other authors, collected in patent publication US7994139B2, “Antiviral therapeutic agents” (BioCryst Pharmaceuticals, Inc., priority 2008, dated 2011).

Tested on: HCV

SMILES: NC(=O)c1ncn([C@@H]2O[C@H](CO)[C@@H](O)[C@H]2O)n1 [Ribavirin, 1-β-D-ribofuranosyl-1-1,2,4-triazole-3-carboxamide]
- serum levels of HCV-RNA (patients, used as sole treatment): does not lower serum levels of HCV-RNA
- patients in whom serum amino transferase levels are reduced to normal (ribavirin alone): 40%
